{
  "source": "patent US20100190794A1",
  "about": "“Herbicidally Active Composition” (BASF SE, priority 2007, published 2010)",
  "test_in_all_cases": "greenhouse test, pre-emergence treatment",
  "key": {"BRAPL": {"tested_on": "BRAPL", "format": "in vivo, Brachiaria plantaginea", "text": "(§1) The culture containers used were plastic pots containing loamy sand with approximately 3.0% of humus as substrate. The seeds of the test plants were sown separately for each species.\n(§2) For the pre-emergence treatment, the active compounds, suspended or emulsified in water, were applied directly after sowing by means of finely distributing nozzles. The containers were irrigated gently to promote germination and growth and subsequently covered with transparent plastic hoods until the plants had rooted. This cover caused uniform germination of the test plants unless this was adversely affected by the active compounds.\n(§3) Depending on the species, the plants were kept at 10-25° C. and 20-35° C., respectively. The test period extended over 2 to 4 weeks. During this time, the plants were tended and their response to the individual treatments was evaluated.\n(§4) Evaluation was carried out using a scale from 0 to 100. 100 means no emergence of the plants, or complete destruction of at least the above-ground parts, and 0 means no damage or normal course of growth. Good herbicidal activity is given at values of at least 70, and very good herbicidal activity is given at values of at least 85.\n(§5) The respective stated components A and B, and if appropriate, C were formulated as a 5% by weight or 10% by weight strength emulsion concentrate or a commercially available formulation of component B was used and, with addition of the amount of solvent system, introduced into the spray liquor used for applying the active compound. In the examples, the solvent used was water.\n(§6) The test period extended over 20 or 21 days. During this time, the plants were tended, and their reactions to the treatment with active compound was monitored.\n(§7) What was evaluated was the damage by the chemical compositions using a scale of from 0 to 100%, in comparison to the untreated control plants. 0 means no damage, and 100 means complete destruction of the plants.\n(§8) In the examples below, using the method of S. R. Colby (1967) “Calculating synergistic and antagonistic responses of herbicide combinations”, Weeds 15, p. 22 ff., the value E, which is expected if the activity of the individual active compounds is only additive, was calculated.\n(§9) where X=percent activity using active compound A at an application rate a; Y=percent activity using active compound B at an application rate b; E=expected activity (in %) by A+B at application rates a+b.\n(§10) If the value found in experiments is higher than the value E calculated according to Colby, a synergistic effect is present."}, "SETLU": {"tested_on": "SETLU", "format": "in vivo, Setaria glauca", "conditions": "for Herbicidal action in % after 20 days against SETLU: Use Example 16", "text": "as §1, §2, §3, §4, §5, §6, §7, §8, §9, §10"}, "SOLNI": {"tested_on": "SOLNI", "format": "in vivo, Solanum nigrum L.", "conditions": "Use Example 19", "text": "as §1, §2, §3, §4, §5, §6, §7, §8, §9, §10"}, "SETFA": {"tested_on": "SETFA", "format": "in vivo, Setaria faberi", "conditions": "Use Example 19", "text": "as §1, §2, §3, §4, §5, §6, §7, §8, §9, §10"}, "DIGSA": {"tested_on": "DIGSA", "format": "in vivo, Digitaria sanguinalis", "text": "as §1, §2, §3, §4, §5, §6, §7, §8, §9, §10"}, "APESV": {"tested_on": "APESV", "format": "in vivo, Apera spica-venti", "conditions": "25 g/ha a.s., Use Example 20", "text": "as §1, §2, §3, §4, §5, §6, §7, §8, §9, §10"}, "POAAN": {"tested_on": "POAAN", "format": "in vivo, Poa annua", "conditions": "25 g/ha a.s., Use Example 7", "text": "as §1, §2, §3, §4, §5, §6, §7, §8, §9, §10"}, "ALOMY": {"tested_on": "ALOMY", "format": "in vivo, Alopecurus myosuroides", "text": "as §1, §2, §3, §4, §5, §6, §7, §8, §9, §10"}, "PHACA": {"tested_on": "PHACA", "format": "in vivo, Phalaris canariensis", "text": "as §1, §2, §3, §4, §5, §6, §7, §8, §9, §10"}, "LAMPU": {"tested_on": "LAMPU", "format": "in vivo, Lamium purpureum", "conditions": "25 g/ha a.s., Use Example 20", "text": "as §1, §2, §3, §4, §5, §6, §7, §8, §9, §10"}, "STEME": {"tested_on": "STEME", "format": "in vivo, Stellaria media", "conditions": "1000 g/ha a.s., Use Example 2", "text": "as §1, §2, §3, §4, §5, §6, §7, §8, §9, §10"}, "MATIN": {"tested_on": "MATIN", "format": "in vivo, Matricaria inodora", "conditions": "1000 g/ha a.s., Use Example 2", "text": "as §1, §2, §3, §4, §5, §6, §7, §8, §9, §10"}, "ECHCG": {"tested_on": "ECHCG", "format": "in vivo, Echinochloa crus-galli", "conditions": "1000 g/ha a.s., Use Example 2", "text": "as §1, §2, §3, §4, §5, §6, §7, §8, §9, §10"}, "CCHEC": {"tested_on": "CCHEC", "format": "in vivo, Cenchrus echinatus", "conditions": "Use Example 16", "text": "as §1, §2, §3, §4, §5, §6, §7, §8, §9, §10"}, "LOLMU": {"tested_on": "LOLMU", "format": "in vivo, Lolium multiflorum", "conditions": "Use Example 1", "text": "as §1, §2, §3, §4, §5, §6, §7, §8, §9, §10"}},
  "data": [
    {"smiles": "CS(=O)(=O)c1cc(C(F)(F)F)ccc1C(=O)c1cnoc1C1CC1", "note": "[Isoxaflutol, Isoxaflutole]", "values": [
      {"measurement": "Herbicidal action in % after 20 days against BRAPL", "setting": "BRAPL; 13 g/ha a.s., Use Example 19", "result": 75, "unit": "%"},
      {"measurement": "Herbicidal action in % after 21 days against BRAPL", "setting": "BRAPL; 25 g/ha a.s., Use Example 9", "result": 90, "unit": "%"},
      {"measurement": "Herbicidal action in % after 20 days against BRAPL", "setting": "BRAPL; 25 g/ha a.s., Use Example 19", "result": 80, "unit": "%"},
      {"measurement": "Herbicidal action in % after 21 days against SETLU", "setting": "SETLU; 25 g/ha a.s., Use Example 9", "result": 75, "unit": "%"},
      {"measurement": "Herbicidal action in % after 20 days against SOLNI", "setting": "SOLNI; 13 g/ha a.s.", "result": 85, "unit": "%"},
      {"measurement": "Herbicidal action in % after 20 days against SOLNI", "setting": "SOLNI; 25 g/ha a.s.", "result": 98, "unit": "%"},
      {"measurement": "Herbicidal action in % after 20 days against SETFA", "setting": "SETFA; 13 g/ha a.s.", "result": 40, "unit": "%"},
      {"measurement": "Herbicidal action in % after 20 days against SETFA", "setting": "SETFA; 25 g/ha a.s.", "result": 55, "unit": "%"},
      {"measurement": "Herbicidal action in % after 20 days against DIGSA", "setting": "DIGSA; 13 g/ha a.s., Use Example 19", "result": 75, "unit": "%"},
      {"measurement": "Herbicidal action in % after 21 days against DIGSA", "setting": "DIGSA; 25 g/ha a.s., Use Example 9", "result": 98, "unit": "%"},
      {"measurement": "Herbicidal action in % after 20 days against DIGSA", "setting": "DIGSA; 25 g/ha a.s., Use Example 19", "result": 95, "unit": "%"}
    ]},
    {"smiles": "O=C(Nc1ccc(F)cc1)c1cccc(Oc2cccc(C(F)(F)F)c2)n1", "note": "[Picolinafen, reference compound]", "values": [
      {"measurement": "Herbicidal action in % after 20 days against APESV", "setting": "APESV", "result": 60, "unit": "%"},
      {"measurement": "Herbicidal action in % after 20 days against POAAN", "setting": "POAAN", "result": 0, "unit": "%"},
      {"measurement": "Herbicidal action in % after 20 days against ALOMY", "setting": "ALOMY; 25 g/ha a.s., Use Example 7", "result": 0, "unit": "%"},
      {"measurement": "Herbicidal action in % after 20 days against PHACA", "setting": "PHACA; 25 g/ha a.s., Use Example 20", "result": 0, "unit": "%"},
      {"measurement": "Herbicidal action in % after 20 days against LAMPU", "setting": "LAMPU", "result": 0, "unit": "%"}
    ]},
    {"smiles": "CCCN(CCC)C(=O)SCc1ccccc1", "note": "[Prosulfocarb, reference compound]", "values": [
      {"measurement": "Herbicidal action in % after 20 days against ALOMY", "setting": "ALOMY; 1000 g/ha a.s., Use Example 2", "result": 70, "unit": "%"},
      {"measurement": "Herbicidal action in % after 20 days against STEME", "setting": "STEME", "result": 80, "unit": "%"},
      {"measurement": "Herbicidal action in % after 20 days against MATIN", "setting": "MATIN", "result": 30, "unit": "%"},
      {"measurement": "Herbicidal action in % after 20 days against ECHCG", "setting": "ECHCG", "result": 40, "unit": "%"}
    ]},
    {"smiles": "O=C(O)c1c(Cl)ccc2cc(Cl)cnc12", "note": "[Quinclorac]", "values": [
      {"measurement": "Herbicidal action in % after 20 days against BRAPL", "setting": "BRAPL; 62.5 g/ha a.s., Use Example 16", "result": 0, "unit": "%"},
      {"measurement": "Herbicidal action in % after 20 days against BRAPL", "setting": "BRAPL; 125 g/ha a.s., Use Example 16", "result": 25, "unit": "%"},
      {"measurement": "Herbicidal action in % after 20 days against SETLU", "setting": "SETLU; 62.5 g/ha a.s.", "result": 50, "unit": "%"},
      {"measurement": "Herbicidal action in % after 20 days against SETLU", "setting": "SETLU; 125 g/ha a.s.", "result": 85, "unit": "%"},
      {"measurement": "Herbicidal action in % after 20 days against CCHEC", "setting": "CCHEC; 62.5 g/ha a.s.", "result": 0, "unit": "%"},
      {"measurement": "Herbicidal action in % after 20 days against CCHEC", "setting": "CCHEC; 125 g/ha a.s.", "result": 20, "unit": "%"}
    ]},
    {"smiles": "CCNc1nc(Cl)nc(NC(C)(C)C)n1", "note": "[Terbuthylazine, reference compound]", "values": [
      {"measurement": "Herbicidal action in % after 20 days against BRAPL", "setting": "BRAPL; 250 g/ha a.s., Use Example 5", "result": 15, "unit": "%"},
      {"measurement": "Herbicidal action in % after 20 days against DIGSA", "setting": "DIGSA; 250 g/ha a.s., Use Example 5", "result": 35, "unit": "%"}
    ]},
    {"smiles": "CC(C)N(C(=O)SCC(Cl)=C(Cl)Cl)C(C)C", "note": "[Triallate, reference compound]", "values": [
      {"measurement": "Herbicidal action in % after 20 days against LOLMU", "setting": "LOLMU; 300 g/ha a.s.", "result": 60, "unit": "%"},
      {"measurement": "Herbicidal action in % after 20 days against LOLMU", "setting": "LOLMU; 600 g/ha a.s.", "result": 80, "unit": "%"},
      {"measurement": "Herbicidal action in % after 20 days against PHACA", "setting": "PHACA; 300 g/ha a.s., Use Example 1", "result": 40, "unit": "%"},
      {"measurement": "Herbicidal action in % after 20 days against PHACA", "setting": "PHACA; 600 g/ha a.s., Use Example 1", "result": 50, "unit": "%"}
    ]}
  ]
}
